Test results reported in paper PMC9897788, “Design, synthesis and cytotoxic evaluation of novel bis-thiazole derivatives as preferential Pim1 kinase inhibitors with in vivo and in silico study” (Journal of Enzyme Inhibition and Medicinal Chemistry, 2023).

Key:
[1] = tested on: breast cancer T47D cell line; experiment: Breast T47D cancer cell cycle flowcytometry; type: cell-based
Method: After treatment with test compounds for 48 h and paclitaxel (1 µM) for 48 h as positive control, cells (10^5 cells) are collected by trypsinization and washed twice with ice-cold PBS (pH 7.4). Cells are re-suspended in two millilitres of 60% ice-cold ethanol and incubated at 4 °C for 1 h for fixation. Fixed cells are washed twice again with PBS (pH 7.4) and re-suspended in 1 ml of PBS containing 50 µg/mL RNAase A and 10 µg/mL propidium iodide (PI). After 20 min of incubation in dark at 37 °C, cells are analysed for DNA contents using flow cytometry analysis using FL2 (λex/em 535/617 nm) signal detector (ACEA Novocyte™ flowcytometer, ACEA Biosciences Inc., San Diego, CA). For each sample, 12,000 events are acquired. Cell cycle distribution is calculated using ACEA NovoExpress™ software (ACEA Biosciences Inc., San Diego, CA)[36].

[2] = Solubility in DMSO (NMR observation); type: physicochemical; details: noticed from weak NMR signals

Row | Structure (SMILES) | Percentage of breast T47D cells, G0/G1 Phase ([1]; 48 h incubation) [%] | Percentage of breast T47D cells, Pre G1 Phase ([1]; 48 h incubation) [%] | Percentage of breast T47D cells, S Phase ([1]; 48 h incubation) [%] | G2 phase cells lower than the control by ([1]; relative to untreated control) [%] | pre-G1 phase cells higher than the untreated control by ([1]; relative to untreated control) [%] | Percentage of breast T47D cells, G2 Phase ([1]; 48 h incubation) [%] | S phase cells higher than the control by ([1]; relative to untreated control) [%] | solubility in DMSO [2]
1 | CC(=O)c1sc(Nc2cccc(Nc3nc(C)c(C(C)=O)s3)c2)nc1C [3b, 1,1’-(2,2’-(1,3-Phenylenebis(azanediyl))bis(4-methylthiazole-5,2-diyl))diethanone] | 66.5 | 2.6 | 18.7 | 58 | 78 |  |  | 
2 | Fc1ccc(-c2cs/c(=N\c3ccccc3)n2-c2cccc(-n3c(-c4ccc(F)cc4)cs/c3=N\c3ccccc3)c2)cc1 [8b, N,N’-(3,3’-(1,3-phenylene)bis(4–(4-fluorophenyl)thiazole-3(3H)-yl-2(3H)-ylidene))dianiline] | 51.7 | 1.9 | 26.5 |  |  | 25.9 | 77.8 | 
3 | Cc1nc(Nc2cccc(Nc3nc(C)c(N=Nc4ccccc4)s3)c2)sc1N=Nc1ccccc1 [5a, N^1,N^3-bis(4-methyl-5-(phenyldiazenyl)thiazol-2-yl)benzene-1,3-diamine] |  |  |  |  |  |  |  | poor solubility in DMSO
